Measured values taken from ChEMBL document CHEMBL5052835, “Slc26a3 inhibitors and use thereof” (2021).
The source made the active and inactive calls. The calls are words filed in the database; no cut-off is given here.

Legend:
FRT = assay: Inhibition of Slc26a3-mediated Cl-/ I- exchange in rat FRT cells assessed as half-life measured by fluorescence assay; assay type: cell-based
[1] = target: T1, Solute carrier family 26 member 6 (Mus musculus) (UniProt Q8CIW6); assay: Inhibition of mouse Slc26a6-mediated Cl-/ I- exchange at 10 uM measured by cell-based fluorescence assay
T1 sequence (whole entry): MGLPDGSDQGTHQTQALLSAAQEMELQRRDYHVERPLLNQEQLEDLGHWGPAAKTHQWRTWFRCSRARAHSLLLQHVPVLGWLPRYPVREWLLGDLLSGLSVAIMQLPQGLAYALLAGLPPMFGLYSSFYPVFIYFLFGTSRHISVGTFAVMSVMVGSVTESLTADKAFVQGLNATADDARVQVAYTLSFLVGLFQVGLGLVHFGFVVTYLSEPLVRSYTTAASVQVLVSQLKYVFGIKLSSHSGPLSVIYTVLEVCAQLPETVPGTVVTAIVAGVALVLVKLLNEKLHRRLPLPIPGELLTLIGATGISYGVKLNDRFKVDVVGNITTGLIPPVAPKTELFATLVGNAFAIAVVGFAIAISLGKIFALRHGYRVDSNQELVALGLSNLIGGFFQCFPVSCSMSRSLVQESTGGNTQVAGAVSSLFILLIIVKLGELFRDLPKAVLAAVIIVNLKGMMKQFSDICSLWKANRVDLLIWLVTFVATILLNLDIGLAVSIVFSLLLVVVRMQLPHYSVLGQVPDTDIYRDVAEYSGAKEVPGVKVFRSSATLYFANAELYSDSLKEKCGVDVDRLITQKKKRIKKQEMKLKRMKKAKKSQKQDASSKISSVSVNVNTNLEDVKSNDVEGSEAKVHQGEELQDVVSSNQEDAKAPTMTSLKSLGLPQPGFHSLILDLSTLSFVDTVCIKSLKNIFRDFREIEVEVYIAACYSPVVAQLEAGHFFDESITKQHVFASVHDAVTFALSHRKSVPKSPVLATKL

Mus musculus [2] = species on record: Mus musculus; assay: Inhibition of mouse Slc26a9-mediated Cl-/ I- exchange at 10 uM measured by cell-based fluorescence assay
Mus musculus [3] = species on record: Mus musculus; assay: Inhibition of mouse CFTR at 10 uM measured by cell-based fluorescence assay
Colon [4] = assay: Inhibition of fluid absorption in distal colonic loop isolated from female CD-1 mouse at 10 uM assessed as effect on reduction in loop weight/length ratio; assay type: functional, tissue-based
Colon [5] = assay: Inhibition of fluid absorption in distal colonic loop isolated from female CD-1 mouse at 10 uM assessed as effect on reduction in loop weight/length ratio in presence of 10 microM tenapanor; assay type: functional, tissue-based
Jejunum = assay: Inhibition of fluid absorption in mid-jejunal loops isolated from female CD-1 mouse at 10 uM assessed as effect on reduction in loop weight/length ratio in presence of 10 microM tenapanor; assay type: functional, tissue-based
Mus musculus [6] = assay: In vivo inhibition of slc26a3 in loperamide-induced constipation model of female CD-1 mouse at 5 mg/kg, po assessed as reduction in stool weight; assay type: functional, organism-based
Mus musculus [7] = assay: In vivo inhibition of slc26a3 in loperamide-induced constipation model of female CD-1 mouse at 5 mg/kg, po assessed as reduction in pellet number; assay type: functional, organism-based
Mus musculus [8] = assay: In vivo inhibition of slc26a3 in loperamide-induced constipation model of female CD-1 mouse at 5 mg/kg, po assessed as reduction in stool water content; assay type: functional, organism-based
Mus musculus [9] = assay: In vivo inhibition of slc26a3 in loperamide-induced constipation model of female CD-1 mouse at 5 mg/kg, po co-administered with tenapanor assessed as reduction in stool weight; assay type: functional, organism-based
Mus musculus [10] = assay: In vivo inhibition of slc26a3 in loperamide-induced constipation model of female CD-1 mouse at 5 mg/kg, po co-administered with tenapanor assessed as reduction in pellet number; assay type: functional, organism-based
Mus musculus [11] = assay: In vivo inhibition of slc26a3 in loperamide-induced constipation model of cystic fibrosis mouse at 5 mg/kg, po assessed as reduction in stool weight; assay type: functional, organism-based
Mus musculus [12] = assay: In vivo inhibition of slc26a3 in loperamide-induced constipation model of cystic fibrosis mouse at 5 mg/kg, po assessed as reduction in pellet number; assay type: functional, organism-based
Mus musculus [13] = assay: In vivo inhibition of slc26a3 in loperamide-induced constipation model of cystic fibrosis mouse at 5 mg/kg, po assessed as reduction in stool water content; assay type: functional, organism-based
Mus musculus [14] = assay: Inhibition of oxalate absorption in sodium oxalate-induced acute hyperoxaluria mouse model at 5 mg/kg, po; assay type: functional, organism-based
Mus musculus [15] = assay: Inhibition of oxalate absorption in high oxalate and low calcium diet-induced oxalate nephropathy model of mouse at 5 mg/kg, po assessed as reduction in kidney damage; assay type: functional, organism-based
Mus musculus [16] = assay: Inhibition of oxalate absorption in high oxalate and low calcium diet-induced oxalate nephropathy model of mouse at 5 mg/kg, po assessed as reduction in crystal deposition in kidney; assay type: functional, organism-based
HBE [17] = assay: Inhibition of ENaC in human HBE cells at 10 uM pretreated with amiloride assessed as effect on short-circuit current responses; assay type: cell-based
HBE [18] = assay: Inhibition of CFTR in human HBE cells at 10 uM pretreated with forskolin assessed as effect on short-circuit current responses; assay type: cell-based
HBE [19] = assay: Inhibition of CaCC in human HBE cells at 10 uM pretreated with ATP assessed as effect on short-circuit current responses; assay type: cell-based

Cc1c(CC(=O)O)c(=O)oc2c(C)c(OCc3cccc(Br)c3)ccc12
T1/2 (FRT): 30 s | inhibition [1]: inactive | inhibition (Mus musculus [2]): inactive | inhibition (Mus musculus [3]): inactive | inhibition (Colon [4]): Active | inhibition (Colon [5]): Active | inhibition (Jejunum): Active | inhibition (Mus musculus [6]): Active | inhibition (Mus musculus [7]): Active | inhibition (Mus musculus [8]): Active | inhibition (Mus musculus [9]): Active | inhibition (Mus musculus [10]): Active | inhibition (Mus musculus [11]): Active | inhibition (Mus musculus [12]): Active | inhibition (Mus musculus [13]): Active | inhibition (Mus musculus [14]): Active | inhibition (Mus musculus [15]): Active | inhibition (Mus musculus [16]): Active | inhibition (HBE [17]): inactive | inhibition (HBE [18]): inactive | inhibition (HBE [19]): inactive
